# According to patent publication US10188689B2, “Method and composition for treating breast cancer” (STELLENBOSCH UNIVERSITY, priority 2014, dated 2019):
# Tested on: Phospho-ser15-p53
# Test: Western blot of tumours from treated mice: phospho-ser15-p53
# Format: in vivo, C57BL6 mice
# Settings: tumours of Dox treated mice, seven days
# Description: Following the weighing and grouping of mice, treatment with D. viscosa extract commenced. Tumour size was measured every two days by taking measurements in two perpendicular dimensions using digital calipers. The D. viscosa extract was administered through raspberry flavoured jelly blocks. Mice were conditioned to the taste of the jelly four days before treatment began. Human dosage (5.24 mg/kg/day) and the Km factor were used for dose translation based on body surface area to calculate animal dosage to be administered (Reagan-Shaw et al., 2007). On the day of treatment, mice were put in separate cages and given a 1 cm×1 cm block of jelly injected with 146 μL extract per jelly block (0.065 mg/g average bodyweight) at dusk every day, for a period of seven days. The day after the last treatment, mice were sacrificed by decapitation, where after tumours were harvested and frozen at −80° C. until needed.
# Protein extraction from cells took place after the 24 hour treatment period. The medium was aspirated and the flasks were placed on ice. […] Cell lysates were then centrifuged at room temperature for 10 minutes at 8000 rpm, where after the protein content of each lysate was determined using the Bradford method (Bradford, 1976). […] After extraction protein content was determined with the Bradford method (Bradford, 1976) and stored at −80° C. until analysis, […]
smiles,measurement,value
"COc1cccc2c1C(=O)c1c(O)c3c(c(O)c1C2=O)C[C@@](O)(C(=O)CO)C[C@@H]3O[C@H]1C[C@H](N)[C@H](O)[C@H](C)O1 [Dox, doxorubicin]",level of p53 in tumours (ratio of phospho-ser15-p53 to total p53),5.3±1.016 fold increase relative to cont
